Results: ChEMBL document CHEMBL4000175, “Biology-oriented drug synthesis (BIODS): In vitro β-glucuronidase inhibitory and in silico studies on 2-(2-methyl-5-nitro-1H-imidazol-1-yl)ethyl aryl carboxylate derivatives” (Eur J Med Chem, 2017)

What was measured:
Beta-glucuronidase = target: T1, Beta-glucuronidase (Bos taurus, UniProt A3KMY8); assay: Inhibition of bovine liver beta glucuronidase using p-nitrophenyl-beta-D-glucuronide as substrate preincubated for 30 mins followed by substrate addition by spectrophotometric method
T1 sequence (A3KMY8 whole entry): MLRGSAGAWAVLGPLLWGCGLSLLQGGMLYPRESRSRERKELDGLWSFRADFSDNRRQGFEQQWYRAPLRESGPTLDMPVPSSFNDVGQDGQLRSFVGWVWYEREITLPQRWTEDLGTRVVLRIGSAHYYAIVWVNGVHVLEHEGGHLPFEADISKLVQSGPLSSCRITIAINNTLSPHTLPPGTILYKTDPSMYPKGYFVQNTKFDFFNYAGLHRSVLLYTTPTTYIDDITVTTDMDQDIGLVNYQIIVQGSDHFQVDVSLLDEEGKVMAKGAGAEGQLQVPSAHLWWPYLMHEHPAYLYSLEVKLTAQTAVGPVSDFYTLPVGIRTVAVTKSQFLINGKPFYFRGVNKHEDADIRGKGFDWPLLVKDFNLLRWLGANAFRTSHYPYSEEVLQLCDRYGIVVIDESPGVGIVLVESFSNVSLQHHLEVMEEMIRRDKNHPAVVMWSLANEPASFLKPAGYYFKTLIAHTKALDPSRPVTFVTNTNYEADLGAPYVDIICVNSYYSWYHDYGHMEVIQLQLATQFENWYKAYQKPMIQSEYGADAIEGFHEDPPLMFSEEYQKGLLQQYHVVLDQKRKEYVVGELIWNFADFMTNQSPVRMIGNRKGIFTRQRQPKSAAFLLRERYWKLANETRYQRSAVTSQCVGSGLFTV

[1] = target: T2, Beta-glucuronidase (Bos taurus) (UniProt A3KMY8); assay: Potency index, ratio of D-saccharic acid 1,4-lactone IC50 to compound IC50 for bovine liver beta glucuronidase
T2 sequence (whole entry): T1 sequence (A3KMY8 whole entry)

Cc1ncc([N+](=O)[O-])n1CCOC(=O)c1ccc(Br)cc1
IC50 (Beta-glucuronidase; read-out: IC50): 42.6 µM

Clc1ccc(-c2nc3ccccc3[nH]2)cc1Cl
IC50 (Beta-glucuronidase; read-out: IC50): 6.33 µM

Cc1cc(C(=O)OCCn2c([N+](=O)[O-])cnc2C)ccc1[N+](=O)[O-]
Ratio IC50 [1]: 7
IC50 (Beta-glucuronidase; read-out: IC50): 7.3 µM

Cc1ncc([N+](=O)[O-])n1CCOC(=O)c1ccc2ncsc2c1
Ratio IC50 [1]: 6
IC50 (Beta-glucuronidase; read-out: IC50): 8.4 µM

Cc1ccc(C(=O)OCCn2c([N+](=O)[O-])cnc2C)cc1
IC50 (Beta-glucuronidase; read-out: IC50): 35.5 µM

Cc1ncc([N+](=O)[O-])n1CCOC(=O)c1cccc([N+](=O)[O-])c1
IC50 (Beta-glucuronidase; read-out: IC50): 27.6 µM

Cc1ccccc1C(=O)OCCn1c([N+](=O)[O-])cnc1C
IC50 (Beta-glucuronidase; read-out: IC50): 44.2 µM

CCCCOc1ccc(C(=O)OCCn2c([N+](=O)[O-])cnc2C)cc1
IC50 (Beta-glucuronidase): Not Active

COc1ccc(C(=O)OCCn2c([N+](=O)[O-])cnc2C)cc1
IC50 (Beta-glucuronidase; read-out: IC50): 60.2 µM

Cc1cc(C)cc(C(=O)OCCn2c([N+](=O)[O-])cnc2C)c1
IC50 (Beta-glucuronidase; read-out: IC50): 24.2 µM

Cc1ncc([N+](=O)[O-])n1CCOC(=O)c1ccc([N+](=O)[O-])cc1
IC50 (Beta-glucuronidase; read-out: IC50): 8.9 µM

Cc1ncc([N+](=O)[O-])n1CCOC(=O)c1ccccc1Br
IC50 (Beta-glucuronidase; read-out: IC50): 48.5 µM

Cc1ncc([N+](=O)[O-])n1CCOC(=O)c1ccccc1Cl
IC50 (Beta-glucuronidase; read-out: IC50): 19.3 µM

Cc1ncc([N+](=O)[O-])n1CCOC(=O)c1cccnc1
IC50 (Beta-glucuronidase; read-out: IC50): 32.6 µM

Cc1ncc([N+](=O)[O-])n1CCOC(=O)c1cccc2ccccc12
IC50 (Beta-glucuronidase): Not Active

COc1cc(OC)cc(C(=O)OCCn2c([N+](=O)[O-])cnc2C)c1
IC50 (Beta-glucuronidase; read-out: IC50): 60.3 µM

Cc1ncc([N+](=O)[O-])n1CCOC(=O)c1cc(Cl)ccc1Cl
IC50 (Beta-glucuronidase; read-out: IC50): 6.2 µM

Cc1ncc([N+](=O)[O-])n1CCOC(=O)c1ccc(F)cc1Br
IC50 (Beta-glucuronidase; read-out: IC50): 6.3 µM

Cc1ncc([N+](=O)[O-])n1CCOC(=O)c1cccc(F)c1
IC50 (Beta-glucuronidase; read-out: IC50): 8.1 µM

Cc1cccc(C(=O)OCCn2c([N+](=O)[O-])cnc2C)c1
IC50 (Beta-glucuronidase): Not Active

Cc1ncc([N+](=O)[O-])n1CCOC(=O)c1cc2ccccc2[nH]1
Ratio IC50 [1]: 24
IC50 (Beta-glucuronidase; read-out: IC50): 2.1 µM

Cc1ncc([N+](=O)[O-])n1CCOC(=O)c1cccc(Cl)c1
IC50 (Beta-glucuronidase; read-out: IC50): 16.3 µM

Cc1ncc([N+](=O)[O-])n1CCOC(=O)c1ccc(Cl)c(Cl)c1
Ratio IC50 [1]: 15
IC50 (Beta-glucuronidase; read-out: IC50): 3.6 µM

COc1ccc(/C=C/C(=O)OCCn2c([N+](=O)[O-])cnc2C)cc1
IC50 (Beta-glucuronidase; read-out: IC50): 31.1 µM

Cc1ncc([N+](=O)[O-])n1CCOC(=O)c1ccc(F)cc1
IC50 (Beta-glucuronidase; read-out: IC50): 12.4 µM

Cc1ncc([N+](=O)[O-])n1CCOC(=O)c1ccc2ccccc2c1
IC50 (Beta-glucuronidase): Not Active
